# Assay results from PMC11724075, “Small-molecule-induced ERBB4 activation to treat heart failure” (Nature Communications, 2025).
# Several values for one entry are separate records, joined by “and”; a condition that tells them apart may be missing. Equal values may be shown once.
# Tests used:
# iAMs = assay: TUNEL assay in H2O2-treated iAMs; format: cell-based, rat; design: In vitro TUNEL assay: unit not given here
# Procedure: To assess apoptosis, a TUNEL assay was performed using the In Situ Cell Death Detection Kit, Fluorescein (Merck, 11684795910) according to the manufacturer’s instructions. After the 4-h incubation, the cells were fixed with 4% paraformaldehyde for 15 min at room temperature, followed by permeabilization with 0.1% Triton X-100 in 0.1% sodium citrate for 2 min on ice. Cells were then incubated with the TUNEL reaction mixture in a humidified chamber at 37 °C for 1 h in the dark. After washing with PBS, the samples were analyzed using fluorescence microscopy to detect apoptotic cells. […]
# 1 on TUNEL staining (red).
# positive cells (n=7 biological replicates in Veh group, n=9 biological replicates for H2O2/Veh group, n=11 […]
# Erbb4-null mice = assay: AngII-treated Erbb4-null mice, echocardiography; format: in vivo, mouse; conditions: AngII/EF-1
# Source text: Floxed Erbb4 mice (Erbb4^f/f; C57BL/6N; 129-Erbb4tm1Fej/Mmucd, MMRRC, #010439-UCD) were crossed with CAGGCre-ER^TM mice (Jackson Laboratory, 004682) containing the Tg(CAG-cre/Esr1*)5Amc transgene that expresses Cre recombinase under the control of a chicken beta actin promoter/enhancer coupled to the human cytomegalovirus immediate-early gene enhancer, resulting in expression of tamoxifen-inducible Cre-ERT in most cell types. To induce Cre recombinase-mediated deletion of Erbb4, eleven-week-old female and male iCAGGCre-ER^TM/Erbb4^f/f mice were intraperitoneally injected with tamoxifen (Merck, T5648; 10 mg/kg; in corn oil) daily for 5 consecutive days.
# Echocardiography was performed using the Vevo F2-LAZRX (FUJIFILM VisualSonics) and UHF57x probe. Mice were anesthetized with 1.5% isoflurane (Alvira, BE-V512222). Parasternal long-axis B-mode images and M-mode images were obtained and analyzed using VevoLAB software (FUJIFILM VisualSonics, Version 5.7.1). For the AngII experiments, measurements were obtained through analysis of the short-axis M-mode. For the MI experiments, measurements were obtained through analysis of the parasternal long-axis B-mode, of which the area and end-volume of the left ventricular cavity in diastole and systole were determined by tracing the endocardial border. Acquisitions, measurements and analyses were performed blinded.
# Supplementary Table 2. Echocardiographic parameters. Echocardiographic parameters obtained through the analysis of the M-mode short-axis views. (a) Male and (b) female wild-type mice treated […]
# mice in EF-1 group). (c) Male wild-type mice treated with AngII and NA-1 (n=5 male mice in Ctrl and AngII/Veh group, n=4 male mice in AngII/NA -1 group). (d) Comparison between wild-type and Erbb4-null mice (n=10 male and female wild -type mice and n=6 male and female Erbb4-null mice). (e) Male […]
# Echocardiographic parameters were measured weekly
# (indicated by ‘T’). All data are presented as mean (value of individual mice) ± SD, two-tailed unpaired […]
# 1 groups. Source data are provided as a Source Data file. AngII, angiotensin II; ANOVA, analysis of variance; Ctrl, control; DOX, doxorubicin; EF, ejection fraction; ERBB4, erythroblastic leukemia viral oncogene homolog 4; FS, fractional shortening; IVSd, interventricular septum thickness in diastole; IVSs, interventricular septum thickness in systole; LVIDd, left ventricular internal diameter in diastole; LVIDs, left ventricular internal diameter in systole; LVPWd, left ventricular posterior wall thickness in diastole; LVPWs, left ventricular posterior wall thickness in systole; MI, myocardial infarction; NA, non-activating pharmacophore-containing compound; SD, standard variation; Veh, vehicle.
# mouse model of MI = assay: Mouse model of MI, histology: CSA, capillaries, interstitial fibrosis, scar size; format: in vivo
# Procedure: Twelve-week-old female and male Balb/cJ (Charles River, 000651) mice were randomized into either the ctrl or MI group. Mice in the MI group underwent surgical ligation of the LAD, while mice in the ctrl group underwent a sham procedure (n = 8 female mice, n = 10 male mice). Briefly, all mice received an injection of 0.1 mg/kg buprenorphine (Produlab Pharma) before induction of anesthesia with 8% sevoflurane (Zoetis). Anesthesia was maintained with 4.5% sevoflurane and mice were intubated and ventilated. An incision of 15 mm was made on the left side of the thorax and the thoracic cavity was opened at the third intercostal space using blunt forceps. The LAD was permanently ligated with a 8/0 polypropylene monofilament sutures (Ethicon, F1894) after which the thoracic cavity and skin were closed with 6/0 polypropylene monofilament sutures (Ethicon, F1841). and 5/0 polyamide 6 sutures (Ethilon, F2412H), respectively. Mice received another dose of 0.1 mg/kg buprenorphine 6–8 h after the initial dose. Two days after surgery, cardiac ultrasound was performed to exclude mice without successful MI (i.e. displaying hypokinesia in ≥2 out of 5 segments). […] Cardiac ultrasound was performed weekly. After 4 weeks of treatment, mice were euthanized, and hearts were collected.
# Hearts were fixed in 4% PFA, paraffin-embedded, and cut into 5-µm sections. Images were acquired with an Olympus BX43 microscope (Olympus Stream Motion Software) or a CELENA® S Digital Imaging System and analyzed with ImageJ 2.14.0 software. Collagen distribution was visualized by Masson’s trichrome staining. Cardiac total fibrosis was expressed as the ratio of positively stained fibrotic area (blue) to the total area and perivascular fibrosis as the ratio of fibrotic area to vascular lumen area. Scar size was determined by measuring the scar length over the […]. Hypertrophy and vascularisation were visualized via an isolectin-B4/WGA/DAPI staining. Quantification was performed by a person blinded to the treatment protocol.
# [1] = test system: Akt phosphorylation (pAkt/Akt); design: method as in PMID 14654373; conditions: cited from earlier work
# [2] = Male and female Erbb4-null mice
# [3] = male and female Erbb4-null mice, mean ± SD
# [4] = MI experiment, female mice, MI/EF-1
compound,measurement,setting,value
O=C(NC1CC1)C(Sc1nc2ccccc2c(=O)n1C1CCCC1)c1ccccc1 (centres unmarked) [EF-1],number of TUNEL-positive (apoptotic) cells (in words),iAMs; 100 µM H2O2,significantly reduced this number
same,In vitro TUNEL assay,"iAMs; H2O2/EF-1, individual replicates",23.25 and 37.594 and 36.981 and 17.145 and 24.708 and 40.03 and 14.87 and 23.901 and 20.679 and 24.2124 and 24.656
same,FS,Erbb4-null mice; [2],5.8 ± 3.5%
same,IVSd,Erbb4-null mice; [2],1.0 ± 0.3 mm
same,IVSs,Erbb4-null mice; [2],1.2 ± 0.5 mm
same,LVIDd,Erbb4-null mice; [2],5.8 ± 0.3 mm
same,LVIDs,Erbb4-null mice; [2],5.5 ± 0.5 mm
same,LVPWd,Erbb4-null mice; [2],1.0 ± 0.4 mm
same,LVPWs,Erbb4-null mice; [2],1.1 ± 0.4 mm
same,FS,Erbb4-null mice; [3],5.8 ± 3.5%
same,IVSd,Erbb4-null mice; [3],1.0 ± 0.3 mm
same,IVSs,Erbb4-null mice; [3],1.2 ± 0.5 mm
same,LVIDd,Erbb4-null mice; [3],5.8 ± 0.3 mm
same,LVIDs,Erbb4-null mice; [3],5.5 ± 0.5 mm
same,LVPWd,Erbb4-null mice; [3],1.0 ± 0.4 mm
same,LVPWs,Erbb4-null mice; [3],1.1 ± 0.4 mm
same,capillary density (#cap./100 CMs),mouse model of MI; [4],126.379 #cap./100 CMs and 126.085 #cap./100 CMs and 117.771 #cap./100 CMs and 154.255 #cap./100 CMs and 147.06 #cap./100 CMs and 123.257 #cap./100 CMs and 102.661 #cap./100 CMs
same,capillary density (#cap./area),mouse model of MI; [4],2.749 #cap./area and 3.344 #cap./area and 2.607 #cap./area and 4.068 #cap./area and 3.029 #cap./area and 3.536 #cap./area and 2.904 #cap./area
same,cardiomyocyte cross-sectional area in MI/EF-1 group (in words),mouse model of MI; both male and female mice,significant increase in cross-sectional area
same,interstitial fibrosis in the remote myocardium of the infarcted hearts (in words),mouse model of MI; female mice,significantly lower
same,number of capillaries per area (µm²) of the heart in MI/EF-1 group (in words),mouse model of MI; female mice,marked decrease in number of capillaries per area
same,scar size (in words),mouse model of MI; female or male mice,did not affect scar size
neuregulin-1 [NRG1],time of peak NRG1-induced Akt phosphorylation,[1],15 min
